The supplement of paper PMC10883282
± gives the standard deviation of the averaged measurements.

Tests used:
Assay in all cases: relative viability vs DMSO control (72 h) (fraction); higher = more viable cells
HT1080 = tested on: HT1080
Procedure, shortened: (§1)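 ATPLite readings, expressed as percent growth and averaged over up to triplicate wells, provided relative viability. Before reading, sarcoma cell lines seeded in 384-well plates to reach 80–90% confluence received 2.5 µl of serially diluted compound after 24 h, from source plates of 10 mM to 0.0002 mM. Plates were held 72 h at 37 °C, 5% CO2, with 0.1% DMSO as vehicle and a 5 µM positive control. The data were rescaled to 1 for full and 0 for none.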

KHOS-NP = tested on: KHOS-NP
Procedure, shortened: as §1

RD = tested on: RD
Procedure, shortened: as §1

VA-ES-BJ = tested on: VA-ES-BJ
Procedure, shortened: as §1

RD-ES = tested on: RD-ES
Procedure, shortened: as §1

C[C@H](Nc1ncnc2nc[nH]c12)c1cc2cccc(Cl)c2c(=O)n1-c1ccccc1 [Duvelisib]
relative viability
Conditions	HT1080	KHOS-NP	RD	RD-ES	VA-ES-BJ
0.00017 µM	1.11 ± 0.025	1.09 ± 0.033	1.08 ± 0.037	0.991 ± 0.012	1.09 ± 0.05
0.00051 µM	1.14 ± 0.043	1.09 ± 0.035	1.1 ± 0.031	1.01 ± 0.026	1.1 ± 0.051
0.00152 µM	1.13 ± 0.019	1.1 ± 0.034	1.13 ± 0.043	1.04 ± 0.032	1.09 ± 0.027
0.00457 µM	1.126 ± 0.0042	1.1 ± 0.024	1.11 ± 0.041	1.04 ± 0.022	1.1 ± 0.017
0.01372 µM	1.08 ± 0.072	1.121 ± 0.0098	1.12 ± 0.046	1.02 ± 0.014	1.08 ± 0.04
0.04115 µM	1.14 ± 0.043	1.09 ± 0.026	1.11 ± 0.034	0.996 ± 0.016	1.06 ± 0.029
0.1235 µM	1.124 ± 0.0096	1.07 ± 0.034	1.08 ± 0.044	0.956 ± 0.029	1.01 ± 0.018
0.3704 µM	1.138 ± 0.01	1.07 ± 0.011	1.07 ± 0.045	0.932 ± 0.031	0.941 ± 0.032
1.111 µM	1.147 ± 0.0097	1.08 ± 0.019	0.994 ± 0.011	0.845 ± 0.046	0.834 ± 0.027
3.333 µM	1.13 ± 0.025	1.07 ± 0.037	0.84 ± 0.03	0.726 ± 0.05	0.688 ± 0.051
10 µM	1.07 ± 0.037	1.07 ± 0.028	0.619 ± 0.013	0.551 ± 0.011	0.48 ± 0.036

CC1(C)CC=C(c2nc(C3CC(C)(C)OC(C)(C)C3)ccc2NC(=O)c2nc(C#N)c[nH]2)CC1 [Edicotinib]
relative viability
Conditions	HT1080	KHOS-NP	RD	RD-ES	VA-ES-BJ
0.00017 µM	1.03 ± 0.036	1.03 ± 0.033	1.123 ± 0.0066	0.9975 ± 0.0079	1.04 ± 0.073
0.00051 µM	1.07 ± 0.024	1.03 ± 0.035	1.09 ± 0.02	1.01 ± 0.036	1.05 ± 0.053
0.00152 µM	1.03 ± 0.021	1.04 ± 0.055	1.12 ± 0.01	1.02 ± 0.062	1.04 ± 0.032
0.00457 µM	1.041 ± 0.0018	1.04 ± 0.044	1.07 ± 0.065	1.02 ± 0.021	1.06 ± 0.017
0.01372 µM	1.04 ± 0.058	1.03 ± 0.04	1.07 ± 0.058	1.01 ± 0.033	1.03 ± 0.066
0.04115 µM	1.03 ± 0.044	1.04 ± 0.033	1.12 ± 0.025	0.999 ± 0.033	0.98 ± 0.094
0.1235 µM	1.037 ± 0.002	1.05 ± 0.029	1.1 ± 0.07	1.021 ± 0.0092	0.977 ± 0.1
0.3704 µM	1.021 ± 0.0094	1.04 ± 0.016	1.1 ± 0.056	1.01 ± 0.019	1.03 ± 0.047
1.111 µM	0.9787 ± 0.0021	1.05 ± 0.013	1.07 ± 0.049	1.01 ± 0.039	1.04 ± 0.066
3.333 µM	1.019 ± 0.0056	0.996 ± 0.037	1.05 ± 0.03	0.987 ± 0.021	1.05 ± 0.02
10 µM	0.993 ± 0.047	0.974 ± 0.012	1.06 ± 0.085	0.968 ± 0.11	1.04 ± 0.039

CC(C)(O)CNc1nc(Nc2ccnc(C(F)(F)F)c2)nc(-c2cccc(C(F)(F)F)n2)n1 [Enasidenib]
relative viability
Conditions	HT1080	KHOS-NP	RD	RD-ES	VA-ES-BJ
0.00017 µM	1.07 ± 0.02	1.09 ± 0.014	1.11 ± 0.072	0.965 ± 0.021	1.04 ± 0.021
0.00051 µM	1.076 ± 0.0082	1.1 ± 0.021	1.125 ± 0.0051	1 ± 0.038	1.06 ± 0.025
0.00152 µM	1.08 ± 0.047	1.091 ± 0.0079	1.11 ± 0.044	1.02 ± 0.029	1.05 ± 0.036
0.00457 µM	1.07 ± 0.021	1.09 ± 0.024	1.08 ± 0.035	1.01 ± 0.021	1.03 ± 0.04
0.01372 µM	1.042 ± 0.0035	1.08 ± 0.019	1.1 ± 0.041	1.012 ± 0.0096	1.06 ± 0.04
0.04115 µM	1.064 ± 0.0088	1.08 ± 0.033	1.1 ± 0.062	0.9861 ± 0.0037	1.05 ± 0.043
0.1235 µM	1.05 ± 0.035	1.08 ± 0.046	1.11 ± 0.054	1.01 ± 0.014	1.06 ± 0.038
0.3704 µM	1.1 ± 0.027	1.06 ± 0.03	1.08 ± 0.057	1.02 ± 0.064	1.07 ± 0.051
1.111 µM	1.16 ± 0.068	1.04 ± 0.03	1.09 ± 0.043	1.01 ± 0.052	1.05 ± 0.033
3.333 µM	1.11 ± 0.033	1.06 ± 0.044	1.09 ± 0.067	1.02 ± 0.049	1.02 ± 0.025
10 µM	0.978 ± 0.01	1.05 ± 0.021	1.04 ± 0.047	1 ± 0.08	0.976 ± 0.031

COC(=O)N[C@@H](C)CNc1nccc(-c2cn(C(C)C)nc2-c2cc(Cl)cc(NS(C)(=O)=O)c2F)n1 [Encorafenib]
relative viability
Conditions	HT1080	KHOS-NP	RD	RD-ES	VA-ES-BJ
0.00017 µM	1.06 ± 0.04	1.01 ± 0.033	0.963 ± 0.033	0.93 ± 0.049	1.02 ± 0.051
0.00051 µM	1.09 ± 0.035	1.01 ± 0.015	1.01 ± 0.033	0.95 ± 0.024	1.04 ± 0.041
0.00152 µM	1.07 ± 0.018	1.03 ± 0.034	1.015 ± 0.0072	0.973 ± 0.03	1.04 ± 0.055
0.00457 µM	1.08 ± 0.063	1.02 ± 0.031	1 ± 0.045	0.956 ± 0.01	1.03 ± 0.059
0.01372 µM	1.09 ± 0.027	1.01 ± 0.042	1.01 ± 0.025	0.935 ± 0.049	1.03 ± 0.054
0.04115 µM	1.08 ± 0.03	0.99 ± 0.063	1.01 ± 0.03	0.94 ± 0.046	1.03 ± 0.017
0.1235 µM	1.06 ± 0.034	1.03 ± 0.018	1.01 ± 0.052	0.905 ± 0.04	1 ± 0.039
0.3704 µM	1.08 ± 0.048	0.984 ± 0.067	0.978 ± 0.066	0.91 ± 0.048	0.989 ± 0.048
1.111 µM	0.885 ± 0.051	0.851 ± 0.069	0.807 ± 0.047	0.707 ± 0.011	0.852 ± 0.024
3.333 µM	0.715 ± 0.035	0.528 ± 0.027	0.447 ± 0.032	0.462 ± 0.019	0.637 ± 0.02
10 µM	0.765 ± 0.076	0.435 ± 0.024	0.45 ± 0.023	0.565 ± 0.059	0.659 ± 0.018

CN1CCN(c2ccc(C(=O)Nc3n[nH]c4ccc(Cc5cc(F)cc(F)c5)cc34)c(NC3CCOCC3)c2)CC1 [Entrectinib]
relative viability
Conditions	HT1080	KHOS-NP	RD	RD-ES	VA-ES-BJ
0.00017 µM	1.095 ± 0.0097	1.08 ± 0.016	1.08 ± 0.049	0.991 ± 0.016	1.09 ± 0.032
0.00051 µM	1.13 ± 0.025	1.1 ± 0.036	1.13 ± 0.026	1.02 ± 0.044	1.08 ± 0.02
0.00152 µM	1.1 ± 0.031	1.07 ± 0.039	1.14 ± 0.078	0.986 ± 0.021	1.06 ± 0.043
0.00457 µM	1.08 ± 0.015	1.08 ± 0.011	1.13 ± 0.065	0.986 ± 0.018	1.05 ± 0.033
0.01372 µM	1.08 ± 0.026	1.06 ± 0.022	1.11 ± 0.068	0.992 ± 0.027	1.06 ± 0.047
0.04115 µM	1.09 ± 0.07	1.05 ± 0.031	1.1 ± 0.09	0.997 ± 0.022	1.03 ± 0.026
0.1235 µM	1.08 ± 0.0091	1.04 ± 0.013	1.11 ± 0.067	0.99 ± 0.011	1.022 ± 0.0078
0.3704 µM	1.06 ± 0.026	1.03 ± 0.013	1.07 ± 0.052	0.929 ± 0.023	1.01 ± 0.015
1.111 µM	1.06 ± 0.021	1.01 ± 0.017	0.934 ± 0.051	0.776 ± 0.044	0.976 ± 0.03
3.333 µM	0.952 ± 0.034	0.98 ± 0.044	0.589 ± 0.014	0.552 ± 0.029	0.894 ± 0.027
10 µM	0.349 ± 0.045	0.602 ± 0.056	0.0669 ± 0.029	0.0781 ± 0.017	0.575 ± 0.052
